“Also recorded” adds a separate entry of the source.
Key:
[1] = tested on: 300 recombinant human protein kinases; conditions: of 300 recombinant human kinases; database / Anastassiadis 2011; cited from earlier work
PANC1 cells [2] = test: cells; type: cell-based; conditions: for viability of gemcitabine treated PANC1 cells: gemcitabine 10 nM 24 h, then inhibitor 1 μM for 48 h (FIG. 1A)
Method: FIGS. 7A-7D show the viability of PANC1 cells treated with increasing concentrations of (FIG. 7A) doxorubicin or (FIG. 7B) cisplatin (24 h) before the addition of UCN-01 (100 nM) or Bos-I (1000 nM) for a further 48 hours.
Identification of clinically relevant kinase inhibitors that sensitize cells to gemcitabine. In the experiments described in this Example, the general protocol was to treat pancreatic cancer cell line (Panc-1) with a dose of gemcitabine that induces DNA damage and arrests cell cycle progression. A panel of nine different clinically relevant kinase inhibitors (FIG. 1A) were added to gemcitabine treated cells, and were assessed for their ability to enhance killing of pancreatic cancer cells to gemcitabine. PANC1 cells were treated with a sub-lethal (IC20) concentration of gemcitabine (10 nM) for 24 hours (a time and concentration sufficient to induce DNA damage and S phase arrest) and kinase inhibitors (all at 1 μM final) were added for another 48 h before cell viability was measured. UCN-01, a Chk1 inhibitor that is established as a sensitizer of gemcitabine was included as a positive control.

PANC1 cells [3] = test: Time-lapse video-microscopy of checkpoint override (premature mitosis) in PANC1 cells; type: cell-based; conditions: gemcitabine 24 h, then inhibitor 1 μM (UCN-01 100 nM), time-lapse 24 hours
Method: PANC1 cells were treated with gemcitabine for 24 hours before the addition of kinase inhibitors (1 μM), and filming commenced thereafter.
Time-lapse video microscopy was used to document the fates of cells treated with gemcitabine with and without the Chk1 inhibitor, UCN-01 (FIG. 3).

PANC1 cells [4] = type: cell-based; conditions: for sensitization of PANC1 cells to gemcitabine: increasing gemcitabine 24 h, then UCN-01 100 nM, bosutinib or sunitinib 1 μM for 48 h (FIG. 1B)
Mia-PaCa-II cells = test: Mia-PaCa-II cell viability after gemcitabine followed by authentic bosutinib; type: cell-based; conditions: authentic bosutinib at 2.5 μM and 5 μM (FIG. 7D)
PANC1 cells [5] = test: Clonogenic survival assay in PANC1 cells; type: cell-based; conditions: gemcitabine 10 nM 24 h
Method: Surviving colonies were determined 10 days later. […] After this time all drugs were removed and cells were plated to determine their efficiency of colony formation after 10 days.

[6] = tested on: Ba/F3 cells expressing the Bcr-Abl wild-type (WT); test: Viability of Ba/F3 cells expressing Bcr-Abl wild-type with bendamustine; type: cell-based; conditions: Bos-I 1000 nM (FIG. 9A)
Method: (§1) FIGS. 9A and 9B show the viability of Ba/F3 cells either expressing (FIG. 9A) the Bcr-Abl wild-type (WT) or (FIG. 9B) the Bcr-Abl mutant (T3151) kinases (lower) treated with increasing concentrations of bendamustine alone or with the addition of Bos-1 (1000 nM).
(§2) It is believed that inhibitors of Src and Abl tyrosine kinases may be effective as a single agent in the treatment of CML (Chronic myelogenous leukemia) where it contains a specific chromosome translocation that fuses the Abl kinase to the Bcr gene. Inhibitors of the Bcr/Abl fusion kinase, such as imatinib and bostunib (Formula I), are effective in the treatment of CML, but resistance (at least for imatinib) invariably occurs. Resistance to imatinib occurs most often as a result of mutations at the gatekeeper position (Threonine 315) within the Abl kinase domain. Such mutants no longer respond to inhibitors such as imatinib. […] (FIG. 9A and FIG. 9B). It is believed that the activity of Bosutinib-isomer against wild type and T3151 mutant is likely mediated through its off-target effects against the DNA damage checkpoint kinases, Wee1 and Chk1.

PANC1 cells [7] = test: Immunofluorescence of mitotic figures in gemcitabine-arrested cells; type: cell-based; conditions: UCN-01 100 nM or Bos-I 1000 nM (FIG. 4)
Text: Shown are representative images of cells from each treatment.
The mitotic figures of cells forced into mitosis by the newly identified sensitizers were examined to determine how they compared to checkpoint override by UCN-01. […] The defects include two lobes of chromatin that lie outside of the spindle, with the detached kinetochores lying within the spindle.
It was observed that overriding the gemcitabine induced S phase checkpoint arrest with Chk1 inhibitors (UCN-01) results in a discrete and reproducible mitotic defect called MUGs (mitotically unreplicated genomes). The defining feature of MUGs is the unreplicated centromeres in the genome are physically detached from the chromosome mass (FIG. 4).

[8] = tested on: Ba/F3 cells expressing the Bcr-Abl mutant (T3151); test: Viability of Ba/F3 cells expressing Bcr-Abl mutant with bendamustine; type: cell-based; conditions: Bos-I 1000 nM (FIG. 9B)
Method: as §1, §2

EGF-1 cells = test: Immunofluorescence of checkpoint override in patient-derived pancreatic cancer cell line EGF-1; type: cell-based; conditions: arrest imposed by either gemcitabine or doxorubicin
Text: Quantification of the percentage of cells that enter mitosis/override the checkpoint after treatment with either gemcitabine or doxorubicin is shown (right panel).
Tumor cells were isolated under an IRB-approved protocol and passaged as xenografts in mice. EGF-1 is a cell line that was derived from F1 tumors and used for in vitro studies.

Wee 1 = Wee 1 (Homo sapiens, UniProt P30291); test: IC50 / kinase assay toward recombinant Wee1 (MBP or Cdc2 substrate); type: biochemical; conditions: Cdc2 as substrate; data not shown
[9] = tested on: Tyr15 phosphorylation of Cdc2; test: Tyr15 phosphorylation of Cdc2 in gemcitabine treated PANC1 cells; type: cell-based; conditions: PANC1 cells treated with gemcitabine
Text: Inhibition of Tyr15 phosphorylation was not observed for dasatnib, which is fully consistent with its in vitro kinase profile, and its inability to override the DNA damage checkpoint.

Chain of Wee 1 (P30291 whole entry): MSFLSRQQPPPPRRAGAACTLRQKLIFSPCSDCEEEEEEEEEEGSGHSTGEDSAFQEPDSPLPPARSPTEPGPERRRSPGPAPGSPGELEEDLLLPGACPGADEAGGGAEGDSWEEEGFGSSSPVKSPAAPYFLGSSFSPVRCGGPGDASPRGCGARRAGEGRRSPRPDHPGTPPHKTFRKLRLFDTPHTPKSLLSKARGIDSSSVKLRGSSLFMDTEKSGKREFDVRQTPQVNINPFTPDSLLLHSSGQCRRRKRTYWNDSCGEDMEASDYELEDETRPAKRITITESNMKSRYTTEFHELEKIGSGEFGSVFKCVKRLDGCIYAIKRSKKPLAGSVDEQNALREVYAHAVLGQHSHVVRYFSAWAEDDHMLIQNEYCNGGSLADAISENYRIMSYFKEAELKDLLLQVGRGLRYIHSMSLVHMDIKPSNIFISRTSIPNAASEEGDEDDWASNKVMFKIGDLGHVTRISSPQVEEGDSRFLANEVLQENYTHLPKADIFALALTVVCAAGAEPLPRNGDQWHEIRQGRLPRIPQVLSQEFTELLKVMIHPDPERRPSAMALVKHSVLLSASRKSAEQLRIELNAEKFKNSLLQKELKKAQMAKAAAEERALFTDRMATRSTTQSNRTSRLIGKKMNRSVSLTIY

COc1cc(Nc2c(C#N)cnc3cc(OCCCN4CCN(C)CC4)c(OC)cc23)c(Cl)cc1Cl [Authentic bosutinib, Bosutinib]
number of kinases inhibited by more than 50% [1]: 84/300 | viability of gemcitabine treated PANC1 cells (PANC1 cells [2]): significantly reduced viability of cells treated with gemcitabine | checkpoint override / premature entry into mitosis (PANC1 cells [3]): able to override the checkpoint and force cells into premature mitosis | minimum effective concentration to sensitize cells to gemcitabine (PANC1 cells [4]; PANC1, titration of sensitizer): 750 nM | sensitization of PANC1 cells to gemcitabine (PANC1 cells [4]): sensitized cells to gemcitabine | sensitization of Mia-PaCa-II cells to gemcitabine (Mia-PaCa-II cells): sensitized to gemcitabine | sensitization to killing by gemcitabine, clonogenic survival (PANC1 cells [5]; compound 0.5 μM for 3 h, colonies after 10 days (FIG. 2)): not

Cn1c(=O)n(-c2ccc(C(C)(C)C#N)cc2)c2c3cc(-c4cnc5ccccc5c4)ccc3ncc21 [BEZ-235]
viability of gemcitabine treated PANC1 cells (PANC1 cells [2]): significantly reduced viability of cells treated with gemcitabine

COc1cc2c(Nc3cc(Cl)c(OC)c(Cl)c3)c(C#N)cnc2cc1OCCCN1CCN(C)CC1 [Bosutinib isomer, Bosutinib-I]
killing of cells in combination with Bendamustine [6]: enhanced killing of cells | mitotic figures of gemcitabine-arrested cells (PANC1 cells [7]): abnormal mitotic figures from gemcitabine-arrested cells that were nearly indistinguishable from UCN-01 treatment | killing of cells in combination with Bendamustine [8]: enhanced killing of cells | number of kinases inhibited by more than 50% [1]: 84 | premature entry into mitosis / checkpoint override in EGF-1 cells (EGF-1 cells): able to prematurely enter mitosis after overriding checkpoint arrests | sensitization of PANC1 cells to doxorubicin (PANC1 cells [2]; 1 μM of the isomer (FIG. 7A)): sensitization by the bosutinib isomer was observed | sensitization of PANC1 cells to cisplatin (PANC1 cells [2]; 1 μM of the isomer (FIG. 7B)): sensitization by the bosutinib isomer was observed | sensitization to gemcitabine at 1 uM (PANC1 cells [2]; PANC1, 1 uM, MTS assay and clonogenic assays): sensitized cells to gemcitabine | viability of gemcitabine treated PANC1 cells (PANC1 cells [2]): reduced the viability of gemcitabine treated cells in a dose-dependent manner | checkpoint override / premature entry into mitosis (PANC1 cells [3]): increased the number of mitotic cells | Wee1 inhibitory activity against physiologically relevant substrate Cdc2 (Wee 1): recapitulated the studies that used MBP as a substrate | sensitization to killing by gemcitabine, clonogenic survival (PANC1 cells [5]; compound 1 μM for 3 h, colonies after 10 days (FIG. 2, FIG. 6)): sensitized cells to killing by gemcitabine | Tyr15 phosphorylation of Cdc2 [9]: dose-dependent inhibition of Tyr15 phosphorylation

CN[C@@H]1C[C@H]2O[C@@](C)([C@@H]1OC)n1c3ccccc3c3c4c(c5c6ccccc6n2c5c31)C(=O)N[C@@H]4O [UCN-01]
mitotic figures of gemcitabine-arrested cells (PANC1 cells [7]): severely perturbed mitotic figures | checkpoint override / premature entry into mitosis (PANC1 cells [3]): forced cells to prematurely enter mitosis; also recorded: increased the number of cells that entered mitosis | sensitization of PANC1 cells to gemcitabine (PANC1 cells [4]): sensitized cells to gemcitabine

Nc1ccn([C@@H]2O[C@H](CO)[C@@H](O)C2(F)F)c(=O)n1 [gemcitabine, Gemcitabine]
CC50 (PANC1 cells [2]; Homo sapiens, PANC-1, read-out: LC50 of gemcitabine alone): > 30 nM
